Experimental data from patent US9896437B2, “Diarylhydantoin compounds” (The Regents of the University of California, priority 2007, dated 2018).

Key:
hormone refractory LAPC4 = assay: Hormone refractory LAPC4 xenograft model; settings: compared with vehicle
From the text: Compounds can also be tested in another xenograft model of hormone refractory prostate cancer, hormone refractory LAPC4. This model is established from passaging of hormone sensitive prostate cancer in castrated mice, which mimics the clinical progression of prostate cancer.

[1] = system: LNCaP cells with overexpressed AR (LN-AR); assay: MTS assay of growth of LNCaP-AR cells
Protocol: LNCaP-AR cells can be maintained in Iscove's medium containing 10% FBS. The compounds are examined for their effect on growth of hormone refractory prostate cancer cells. Overexpressed LNCaP cells are used because these cells behave as hormone refractory prostate cancer cells in vitro and in vivo. Mitochondria activity by MTS assay is measured, a surrogate for growth. LNCaP cells with overexpressed AR (LN-AR) are maintained in Iscove's medium containing 10% FBS. Two days prior to drug treatment, the cells are grown in Iscove's medium containing 10% CS-FBS to deprive of androgens. The cells are then split and grown in Iscove's medium containing 10% CS-FBS with appropriate concentrations of R1881 and increasing concentrations of the test compounds. After four days incubation, cell growth is monitored by MTS (Promega, Madison, Wis.).
The inhibitory effect of compounds on growth of hormone refractory prostate cancer in the presence of 100 pM of R1881 is measured.

androgen receptor (AR) [2] = molecular target: androgen receptor (AR) (Homo sapiens, UniProt P10275, T878A); settings: parental LNCaP cells
Sequence of androgen receptor (AR) (Homo sapiens, UniProt P10275, T878A) (P10275 whole entry T878A): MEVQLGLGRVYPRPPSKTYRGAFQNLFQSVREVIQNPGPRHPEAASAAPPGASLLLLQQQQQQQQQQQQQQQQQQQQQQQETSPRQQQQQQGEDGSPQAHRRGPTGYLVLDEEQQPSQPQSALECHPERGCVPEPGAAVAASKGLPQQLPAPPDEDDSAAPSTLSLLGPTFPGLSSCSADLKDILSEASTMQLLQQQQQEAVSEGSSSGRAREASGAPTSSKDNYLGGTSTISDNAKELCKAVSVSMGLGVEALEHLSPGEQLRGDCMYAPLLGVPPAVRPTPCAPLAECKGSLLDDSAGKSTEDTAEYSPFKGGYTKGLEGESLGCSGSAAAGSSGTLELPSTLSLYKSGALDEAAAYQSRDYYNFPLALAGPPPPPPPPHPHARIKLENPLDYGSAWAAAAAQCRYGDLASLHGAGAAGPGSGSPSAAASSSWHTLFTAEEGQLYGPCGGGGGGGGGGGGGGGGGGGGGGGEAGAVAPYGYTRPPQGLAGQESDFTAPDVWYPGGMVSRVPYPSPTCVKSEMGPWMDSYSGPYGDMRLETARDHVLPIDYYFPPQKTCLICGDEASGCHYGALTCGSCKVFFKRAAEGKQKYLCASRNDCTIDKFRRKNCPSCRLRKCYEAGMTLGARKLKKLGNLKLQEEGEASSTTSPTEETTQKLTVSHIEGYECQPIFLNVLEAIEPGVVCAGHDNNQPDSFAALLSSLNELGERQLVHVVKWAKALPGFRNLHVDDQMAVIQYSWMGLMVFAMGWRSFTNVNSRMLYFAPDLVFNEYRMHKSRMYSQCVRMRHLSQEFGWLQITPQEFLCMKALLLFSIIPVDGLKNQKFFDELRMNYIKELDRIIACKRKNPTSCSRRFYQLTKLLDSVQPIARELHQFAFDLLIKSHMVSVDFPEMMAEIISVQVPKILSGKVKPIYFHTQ

androgen receptor (AR) [3] = type: cell-based
From the text: For example, the compounds can be subjected to tests using an artificial androgen receptor (AR) response reporter system in a hormone refractory prostate cancer cell line. The prostate cancer LNCaP cells are engineered to stably express about 5-fold higher level of AR than endogenous level. The exogenous AR has similar properties to endogenous AR in that both are stabilized by a synthetic androgen R1881. […] The antagonistic activity of the compounds for which the synthesis is described above can be examined in the presence of 100 pM of R1881. Engineered LNCaP cells (LNCaP-AR, also abbreviated LN-AR) are maintained in Iscove's medium containing 10% fetal bovine serum (FBS). Two days prior to drug treatment, the cells are grown in Iscove's medium containing 10% charcoal-stripped FBS (CS-FBS) to deprive of androgens. The cells are split and grown in Iscove's medium containing 10% CS-FBS with 100 pM of R1881 and increasing concentrations of test compounds. After two days of incubation, reporter activities are assayed.
To determine agonistic activities of different compounds, the stimulating activities on androgen receptor (AR) using the AR response reporter as the measure in the LN-AR system in the absence of R1881 can be examined.

androgen receptor (AR) [4] = type: cell-based; remark: listed apart in the source
From the text: The LNCaP-AR cells are a line of lymph node carcinoma of prostate cells transduced with a plasmid that makes express androgen receptors.

LNCaP cells = assay: MTS assay of growth of parental, hormone sensitive LNCaP cells

CC(O)(CS(=O)(=O)c1ccc(F)cc1)C(=O)Nc1ccc(C#N)c(C(F)(F)F)c1 (stereo not shown) [Bicalutamide]
inhibition of PSA expression (hormone refractory LAPC4): does not inhibit
inhibition of growth (hormone refractory LAPC4): does not inhibit
inhibitory effect on growth of hormone refractory prostate cancer ([1]; presence of 100 pM of R1881, MTS): does not inhibit

C[C@]1(O)CC[C@H]2[C@@H]3CCC4=CC(=O)CCC4=C3C=C[C@@]21C [R1881]
concentration at which PSA is first induced (androgen receptor (AR) [2]): 100 pM
concentration that stimulates growth ([1]; AR-overexpressed LNCaP, MTS): 25 µM
reporter activity response to androgen (androgen receptor (AR) [3]; LNCaP-AR cells): responds to low concentration
concentration that strongly induces the secreted PSA level (androgen receptor (AR) [4]; LNCaP-AR cells): 25 pM
concentration at which growth is first stimulated (LNCaP cells): 100 µM

CC1(C)C(=O)N(c2ccc(C#N)c(C(F)(F)F)c2)C(=S)N1CCCCO [RU59063]
agonistic activity on AR (AR response reporter) (androgen receptor (AR) [3]; LN-AR system, hormone refractory, absence of R1881): can activate AR
stimulation of PSA expression (agonistic activity) (androgen receptor (AR) [4]; hormone refractory prostate cancer, absence of R1881): can stimulate PSA expression
